Laboratory results as given in ChEMBL document CHEMBL3044652, “Synthesis of novel 2-alkyl-4-substituted-amino-pyrazolo[3,4-d]pyrimidines as new leads for anti-bacterial and anti-cancer activity” (2013).

What was measured:
Type in all cases: functional
G-361 [1] = assay: Cytotoxicity against Homo sapiens (human) G361 cells assessed as cell growth at 10^-7 M by SRB assay relative to control; conditions: read-out: Activity
G-361 [2] = assay: Cytotoxicity against Homo sapiens (human) G361 cells assessed as cell growth at 10^-6 M by SRB assay relative to control; conditions: read-out: Activity
[3] = tested on: Staphylococcus epidermidis; assay: Antibacterial activity against Staphylococcus epidermidis NCIM 2493 at 20 ug/ml after 24 hr by agar diffusion method; conditions: NCIM 2493, 24 h, read-out: IZ
Escherichia coli = assay: Antibacterial activity against Escherichia coli NCIM 2803 at 20 ug/ml after 24 hr by agar diffusion method; conditions: NCIM 2803, 24 h, read-out: IZ
G-361 [4] = assay: Cytotoxicity against Homo sapiens (human) G361 cells assessed as cell growth at 10^-4 M by SRB assay relative to control; conditions: read-out: Activity
Staphylococcus aureus = assay: Antibacterial activity against Staphylococcus aureus NCIM 5021 at 20 ug/ml after 24 hr by agar diffusion method; conditions: NCIM 5021, 24 h, read-out: IZ
Bacillus subtilis = assay: Antibacterial activity against Bacillus subtilis NCIM 2545 at 20 ug/ml after 24 hr by agar diffusion method; conditions: NCIM 2545, 24 h, read-out: IZ
G-361 [5] = assay: Cytotoxicity against Homo sapiens (human) G361 cells assessed as cell growth at 10^-5 M by SRB assay relative to control; conditions: read-out: Activity
G-361 [6] = assay: Cytotoxicity against Homo sapiens (human) G361 cells by SRB assay

| Structure (SMILES) | growth at 0.1 µM (G-361 [1]) [%] | growth at 1 µM (G-361 [2]) [%] | zone of inhibition at 20 µg/mL [3] [mm] | zone of inhibition at 20 µg/mL (Escherichia coli) [mm] | growth at 100 µM (G-361 [4]) [%] | zone of inhibition at 20 µg/mL (Staphylococcus aureus) [mm] | zone of inhibition at 20 µg/mL (Bacillus subtilis) [mm] | growth at 10 µM (G-361 [5]) [%] | GI50 (G-361 [6]) [µM] | LC50 (G-361 [6]) [µM] | TGI (G-361 [6]) [µM] |
| --- | --- | --- | --- | --- | --- | --- | --- | --- | --- | --- | --- |
| CCc1nc(N2CCOCC2)c2cnn(-c3ccccc3)c2n1 | 100 | 85.5 | 13 | 13 | 30.9 | 13 | 13.3 | 65.9 | 28 | > 100 | > 100 |
| c1ccc(-n2ncc3c(N4CCOCC4)nc(CN4CCOCC4)nc32)cc1 | 99.7 | 99.6 | 13.3 | 13.6 | 47.6 | 13.6 | 13 | 94.3 | > 100 | > 100 | > 100 |
| c1ccc(-n2ncc3c(NCc4ccco4)ncnc32)cc1 | 100 | 97.5 | 13.6 | 12.8 | 51.7 | 13 | 13.6 | 92.3 | > 100 |  | > 100 |
| CCCNCc1nc(NCCC)c2cnn(-c3ccccc3)c2n1 | 100 | 99.6 | 13.3 | 13.3 | 75.1 | 13.3 | 13.6 | 100 | > 100 |  | > 100 |
| CCNCc1nc(NCC)c2cnn(-c3ccccc3)c2n1 | 100 | 100 | 13.6 | 13.3 | 87.7 | 12.6 | 12.7 | 100 | > 100 | > 100 | > 100 |
| CCCCNc1nc(CC)nc2c1cnn2-c1ccccc1 | 100 | 96.5 | 13 | 12.7 | -62.5 | 13.3 | 12.8 | 84.8 | 2.02 | > 100 | 32 |
| Cc1nc(N2CCOCC2)c2cnn(-c3ccccc3)c2n1 | 100 | 100 | 13.6 | 12.7 | 43.9 | 13.3 | 13.6 | 99.8 | > 100 | > 100 | > 100 |
| COc1cccc2c1C(=O)c1c(O)c3c(c(O)c1C2=O)C[C@@](O)(C(=O)CO)C[C@@H]3O[C@H]1C[C@H](N)[C@H](O)[C@H](C)O1 [DOXORUBICIN] | -24 | -62.5 |  |  | -70.7 |  |  | -64.2 | < 0.1 |  | < 0.1 |
| COc1ccccc1Nc1nc(C)nc2c1cnn2-c1ccccc1 |  |  | 13.6 | 13.5 |  | 13.3 | 13.4 |  |  |  |  |
| CCc1nc(Nc2ccccc2)c2cnn(-c3ccccc3)c2n1 |  |  | 13.6 | 13.3 |  | 13.6 | 13.3 |  |  |  |  |
| CCCCNc1ncnc2c1cnn2-c1ccccc1 | 100 | 90.8 | 13.3 | 13.6 | -4.5 | 13.3 | 13 | 43.4 | 2.1 | > 100 | 37 |
| CC(C)c1nc(Nc2ccccc2)c2cnn(-c3ccccc3)c2n1 | 100 | 100 | 13.3 | 12.8 | 19.2 | 13.3 | 13.5 | 91.9 | 32 | > 100 | > 100 |
| Cc1nc(Nc2ccccc2)c2cnn(-c3ccccc3)c2n1 | 100 | 100 | 13.6 | 13.3 | 65.6 | 13.4 | 13.6 | 100 | > 100 | > 100 | > 100 |
| CCCNc1nc(CC)nc2c1cnn2-c1ccccc1 | 100 | 94.7 | 13.3 | 13.6 | -34.7 | 13.3 | 13 | 84.7 | 2.2 | > 100 | 37 |
| ClCc1nc(Cl)c2cnn(-c3ccccc3)c2n1 | 100 | 100 |  |  | -59.3 |  |  | 90.9 | 2.08 | > 100 | 33.2 |
| CC(C)Nc1ncnc2c1cnn2-c1ccccc1 |  |  | 13.6 | 13.3 |  | 13.6 | 13.3 |  |  |  |  |
| CC(C)NCc1nc(NC(C)C)c2cnn(-c3ccccc3)c2n1 | 100 | 100 | 1.33 | 13 | 56.5 | 1.3 | 13.6 | 99.7 | > 100 | > 100 | > 100 |
| CCCNc1ncnc2c1cnn2-c1ccccc1 | 100 | 100 | 13.3 | 13.2 | 64.8 | 12.7 | 13.2 | 99.7 | > 100 | > 100 | > 100 |
| CCCNc1nc(C)nc2c1cnn2-c1ccccc1 | 100 | 100 | 13.6 | 12.7 | 25.3 | 13.6 | 13 | 100 | 36 | > 100 | > 100 |
| CCN(CC)c1nc(C)nc2c1cnn2-c1ccccc1 | 100 | 100 | 13.3 | 13.6 | 61.8 | 13.7 | 13.1 | 100 | > 100 | > 100 | > 100 |
| Cc1nc(NCc2ccco2)c2cnn(-c3ccccc3)c2n1 | 100 | 100 | 13.3 | 13.6 | 30.1 | 12.7 | 12.5 | 100 | 39 | > 100 | > 100 |
| CCc1nc(NCc2ccco2)c2cnn(-c3ccccc3)c2n1 | 100 | 96.5 | 13.6 | 12.7 | -61 | 13.3 | 13.6 | 86.3 | 2.04 | > 100 | 32 |
| Cc1nc(NCc2ccccc2)c2cnn(-c3ccccc3)c2n1 | 100 | 100 | 12.7 | 12.6 | 45.5 | 13.1 | 13.3 | 100 | > 100 | > 100 | > 100 |
| Cc1nc(NC(C)C)c2cnn(-c3ccccc3)c2n1 | 100 | 100 | 13.7 | 13 | 13.5 | 13.3 | 13.6 | 100 | 32 | > 100 | > 100 |
| c1ccc(-n2ncc3c(N4CCOCC4)ncnc32)cc1 | 100 | 100 | 12.7 | 13.3 | 61.5 | 13.6 | 12.8 | 100 | > 100 | > 100 | > 100 |
| CCc1nc(NC(C)C)c2cnn(-c3ccccc3)c2n1 | 100 | 96.4 | 13.6 | 13.3 | 40 | 13.6 | 13.3 | 83.3 | 38 | > 100 | > 100 |
